In ChEMBL document CHEMBL1130992, “Effect of side chain location in (2-aminoethyl)-aminomethyl-2-phenylquinolines as antitumor agents” (1998):

Key:
Nucleic Acid [1] = assay: Compound was evaluated for DNA-binding affinity using calf-thymus DNA; assay type: nucleic-acid assay; conditions: Bos taurus
Nucleic Acid [2] = assay: Compound was evaluated for DNA-binding affinity using poly[d(AT)]2; assay type: nucleic-acid assay
Nucleic Acid [3] = assay: Compound was evaluated for DNA-binding affinity using poly[d(GC)]2; assay type: nucleic-acid assay
HeLa [4] = assay: Compound was tested for antitumor activity against the human uterine cancer cell (HeLa) line at concentration of […] x 10 e-5 M; assay type: functional
HeLa [5] = assay: Compound was tested for antitumor activity against the human uterine cancer cell (HeLa) line at concentration of 1 x 10 e-6 M; assay type: functional
HeLa [6] = assay: Compound was tested for antitumor activity against the human uterine cancer cell (HeLa) line at concentration of 1 x 10 e-7 M; assay type: functional
HeLa [7] = assay: Compound was tested for antitumor activity against the human uterine cancer cell (HeLa) line at concentration of […] x 10 e-4 M; assay type: functional
[8] = Ratio of C50(GC) to that of C50(AT)

Compound	C50 (Nucleic Acid [1])	C50 (Nucleic Acid [2])	C50 (Nucleic Acid [3])	Cell survival (HeLa [4])	Cell survival (HeLa [5])	Cell survival (HeLa [6])	Cell survival (HeLa [7])	Ratio [8]
Cl.Cl.Cl.NCCNCc1ccc2ccc(-c3ccccc3)nc2c1	11 µM	11 µM	16 µM	31%	70%	98%	3%	1.5
Cl.Cl.Cl.NCCNCc1cccc2ccc(-c3ccccc3)nc12	2.1 µM	5.2 µM	5.6 µM	7%	65%	77%	0%	1.1
Cl.Cl.NCCNCc1ccc2nc(-c3ccccc3)ccc2c1				44%	82%	85%	0%	
Cl.Cl.Cl.NCCNCc1cc(-c2ccccc2)nc2ccccc12	30 µM	33 µM	48 µM	52%	62%	74%	8%	1.5
Cl.Cl.Cl.NCCNCc1c2ccccc2nc2ccccc12				71%	94%	100%	3%	
Cl.Cl.Cl.NCCNCc1ccc(-c2ccc3ccccc3n2)cc1	7 µM	7 µM	11 µM	65%	87%	79%	3%	1.6
